From US10233205B2, “Magnetic resonance imaging contrast agent capable of detecting hydrogen peroxide and reducing reactive oxygen species” (Auburn University, priority 2015, dated 2019)

What was measured:
[1] = Competitive binding assay with TPEN for log(K) of ligand binding to Mn(II); assay type: physicochemical
Procedure: The log(K) was measured via a competitive binding assay between N,N,N′,N′-tetrakis(2-pyridylmethyl)ethylenediamine (TPEN) and the ligand (L). Various amounts of TPEN were added to a solutions of the ligand in MeCN-d3 and D2O.
The log(K) for the complexation of H2qtp1 to Mn(II) was estimated through a titration with the metal-scavenging agent TPEN (N,N,N′,N′-tetrakis(2-pyridinylmethyl)ethylenediamine, log K=10.3). The ratios of free TPEN to free ligand were assessed by ^1H NMR.
Given the known log(K) of 10.3 for TPEN's binding to Mn(II), a log(K) of 10.7 was thereby assigned for the coordination of H2qtp1 to Mn(II). […] The log(K) of 10.7 is nearly identical to the 10.6 value estimated for a related ligand from our laboratory that contains a para-methylphenol group in place of the H2qtp1's quinol.

[2] = Potentiometric pH titrations, Hyperquad model; conditions: for log(β): Hyperquad model, 100 mM KCl, 25° C.
From the text: (§2) The speciation in water was more rigorously probed with potentiometric pH titrations. […] The quinolic protons likely deprotonate at higher pH values (pKa˜10), but we were unable to obtain the high pH data necessary to confirm this.
(§3) The data were fit to a model containing the protonated forms of the free ligand and four Mn(II) complexes with the ligand in various protonation states: [Mn(H2qtp2)], [Mn(H3qtp2)]^+, [Mn(H4qtp2)]^2+, and [Mn(H4qtp2)]^3+ (Scheme 4).

[3] = physchem
From the text: as §2, §3

[4] = Stability in aerobic solution / to pH; assay type: physicochemical; conditions: pH >10
Procedure: Over this time, collected UV/vis spectra (FIGS. 2 & 3) display changes in the region between 200 nm and 300 nm which are consistent with the oxidation of the quinol to a para-quinone. Past 24 h, the solution begins to turn brown, consistent with oxidation of the manganese to Mn(III) and/or Mn(IV). For the spectrophotometric analysis, the Fe(ClO4)2 solution was added to a MeCN solution containing 0.10 mM [Mn(Hptp1)(MeCN)]^2+; the mixture was scanned at 0 min (dashed red), 30 min (dashed pink), and 60 min (dashed blue). […] At 15 h, approximately 11% of the Mn(II) has been displaced by Fe(II) as indicated by data in FIG. 3.
The stability of 3 to air and adventitious metal ions was assessed primarily by UV/vis spectroscopy. […] Complex 3, however, is susceptible to metal exchange. When equimolar amounts of 3 and Fe(ClO4)2 are mixed in MeCN, 80% of the Mn(II) is replaced by Fe(II) by 3 h.

[5] = T1-weighted relaxivity (r1) on 3 T clinical MRI scanner; assay type: physicochemical; conditions: no oxidant; 50 mM HEPES pH 7.00, 3 T, 25° C.
From the text: All MRI data were collected at the Auburn University MRI Research Center (Auburn, Ala.) on a Siemens Verio open-bore 3-T MRI clinical scanner. A 15-channel knee coil was used to simultaneously image 12-26 samples. An inversion recovery (IR) sequence was used that featured a non-selective adiabatic inversion pulse followed by a slice-selective gradient recalled echo (GRE) readout after a delay period corresponding to the inversion time (TI).^1-2 The GRE was a saturation readout, such that only one line of k-space was acquired per repetition time (TR). This method was selected to maximize both the signal strength and the accuracy of the T1 estimates. Specific imaging parameters were as follows: TR was set to 4 s, TI was varied from 4.8 to 2500 ms over 37 steps, the echo time (TE) was set to 3.6 ms, the flip angle equaled 90°, averages=1, slice thickness=5 mm, field of view=140×140 mm, matrix=128×128, resulting in a pixel size of 1.1×1.1×5.0 mm. All samples were run in 50 mM solutions of HEPES in water, buffered to pH 7.0 and kept at […]. The manganese content was systematically varied from 0.10 to 1.00 mM. The inverses of the T1 values were plotted versus the concentration of Mn(II) to obtain r1 values. All reported r1 values are averages from the results of two separate series of experiments. Each series of experiments used a different batch of 1.
Image analysis was performed using custom Matlab programs (Mathworks, Natick, Mass.). The initial TI=4.8 ms image served as a baseline to determine circular region of interest (ROI) boundaries for each sample; from these, the mean pixel magnitudes for each ROI were calculated. For each of the 36 subsequent TI images, the same ROI boundaries were applied and the mean pixel magnitude calculations were repeated. This gave consistent ROI spatial definitions and a corresponding time course of magnitudes for each of the samples over all the TI time points. Each sample's complex phase was used to correct the magnitude polarity to produce a complete exponential T1 inversion recovery curve. The Nelder-Mead simplex algorithm^3 was applied to each sample's exponential curve to estimate its corresponding T1 value.
(§1) For the relaxivity measurements, all samples were run in 298 K aqueous solutions containing 50 mM HEPES buffered to pH 7.00, using a 3 T field provided by a clinical MRI scanner. The data were fit to the indicated linear equations; the y-intercepts were within error of 1/T1 measurements associated with two control samples that contained no Mn(II): (A) 10 mM H2O2 in 50 mM HEPES buffer and (B) pure 50 mM HEPES buffer (both 0.46 s^−1).
as §1, with “All” for “For the relaxivity measurements, all”, “s^−1). The oxidation of 1 by 2,3-dichloro-5,6-dicyano-1,4-benzoquinone (DDQ) occurred in CH2Cl2. After the reaction occurred, the 2,3-dichloro-5,6-dicyanoquinol product was removed via filtration, the CH2Cl2 was removed, and the sample was dissolve in HEPES buffer for MRI analysis. The other oxidation reactions occurred entirely in HEPES buffer.” for “s^−1).”
The capability of 3 to serve as a MRI contrast agent was assessed with a 3 T clinical MRI scanner. All samples were run in 298 K aqueous solutions containing 50 mM HEPES buffered to pH 7.00, using a 3 T field provided by a clinical MRI scanner. All samples were prepared under air. The oxidized samples were prepared by directly adding H2O2 to solutions of 3 in aqueous solutions buffered to pH 7.0. The oxidation reactions were allowed to proceed for 30 min at 298 K before the T1 measurements were taken. […]

[6] = conditions identical to those used for 3; cited from earlier work
[7] = Solubility in water; assay type: physicochemical; conditions: pure H2O

With `Oc1ccc(O)c(CN(CCN(Cc2ccccn2)Cc2ccccn2)Cc2ccccn2)c1` [Complex H2qtp1, N-(2,5-Dihydroxybenzyl)-N,N′,N′-tris(2-pyridinylmethyl)-1,2-ethanediamine] the “equilibrium constant for [Mn(L)(MeCN)]^2+ + TPEN → [Mn(TPEN)]^2+ + L” value ([1]; in both water and MeCN) was 0.4 and the “log(K) for the coordination of ligand to Mn(II)” value ([1]; titration with TPEN, 1H NMR, water and MeCN) was 10.7.
With `Oc1ccc(O)c(CN(CCN(Cc2ccccn2)Cc2cc(O)ccc2O)Cc2ccccn2)c1` [Complex H4qtp2, N,N′-Bis(2,5-dihydroxybenzyl)-N,N′-bis(2-pyridinylmethyl)-1,2-ethanediamine] the “log(β)” value [2] was 0.00, the pKa ([3]; pKL1 (free ligand pKa)) was 4.47 and the pKa ([3]; pKL2 (free ligand pKa)) was 7.18. For the same compound, the “stability of ligand to pH” value [4] was “degrades under basic conditions”.
In the case of `Oc1ccc(O)c(CN(CCN(Cc2ccccn2)Cc2cc(O)ccc2O)Cc2ccccn2)c1` [H5qtp2^+], the “log(β)” value [2] is reported as 7.18 (±0.03).
With `Oc1ccc(O)c(CN(CCN(Cc2ccccn2)Cc2cc(O)ccc2O)Cc2ccccn2)c1` [H6qtp2^2+] the “log(β)” value [2] was 11.65 (±0.05).
In the case of `O.O=C([O-])CN(CCN(CC(=O)[O-])CC(=O)[O-])CC(=O)[O-].[Mn+2]` [[Mn(EDTA)(H2O)]^2−, reference compound], the “r1 (T1-weighted relaxivity)” value [5] is reported as 1.73 mM⁻¹ s⁻¹.
For `O.O.O.O.O.O.[Mn+2]` [[Mn(H2O)6]^2+], the “r1, previously found” value [6] is given as “about 5.3 mM^−1s^−1”.
With `Oc1ccc2c(c1)CN(Cc1ccccn1)CCN(Cc1ccccn1)Cc1cc(O)ccc1[O][Mn][O]2` [[Mn(H2qtp2)]] the “log(β)” value [2] was −7.19 (±0.01), the “percent formation of Mn(II) species” value ([2]; pH 7.0) was 40.3% and the “percent formation of Mn(II) species” value ([2]; pH 7.4) was 66.2%.
In the case of “cis-Dibromo(N,N′-bis(2,5-benzoquinone)-N,N′-bis(2-pyridinylmethyl)-1,2-ethanediamine)manganese(II) [Complex 4]”, the “solubility in water” value [7] is reported as “poor and poor solubility”.
